Toxic doses and inconclusive results are not listed. How the source made its calls: active means survival T/C of 150% or more; inactive means T/C below 125% in these data.
Tested on: CD2F1 mice, L1210 leukemia ip, survival T/C
Experiment: NCI In Vivo Anticancer Drug Screen. Data for tumor model L1210 Leukemia (intraperitoneal) in CD2F1 (CDF1) mice
Conditions: endpoint: mean survival time, higher = longer survival
Method in brief: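 Tumor-bearing mice (transplanted tumor) were split into treated and vehicle control groups, and the measured endpoint of each treated group was divided by that of its vehicle controls.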

[1] = dose: 50.0 mg/kg/injection, schedule: Q01DX009 (ip), vehicle: saline with Tween-80
[2] = dose: 100.0 mg/kg/injection, schedule: Q01DX009 (ip), vehicle: saline with Tween-80
[3] = dose: 100.0 mg/kg/injection, schedule: Q04DX003 (ip), vehicle: saline with Tween-80
[4] = dose: 200.0 mg/kg/injection, schedule: Q01DX009 (ip), vehicle: saline with Tween-80
[5] = dose: 200.0 mg/kg/injection, schedule: Q04DX003 (ip), vehicle: saline with Tween-80
[6] = dose: 400.0 mg/kg/injection, schedule: Q01DX009 (ip), vehicle: saline with Tween-80
[7] = dose: 400.0 mg/kg/injection, schedule: Q04DX003 (ip), vehicle: saline with Tween-80

Measured: T/C

CC(C)C1(C(C)C)OCCO1
inactive: [1] 98 % of control | [2] 93 % of control | [3] 97 % of control | [4] 95 % of control | [5] 88 % of control

C=CC/C(C)=C/C=C/C(C)C(=O)O (configuration not stated)
inactive: [2] 100 % of control | [3] 98 % of control | [4] 94 % of control | [5] 93 % of control | [6] 104 % of control | [7] 95 % of control

O=C(O)C(O)(C1CCCCC1)C1CCC2CCC3CCCC1C32 (configuration not stated)
inactive: [3] 105 % of control | [5] 87 % of control | [7] 105 % of control

S=C(SN1CCCCC1)N1CCCCC1
inactive: dose: 50.0 mg/kg/injection, schedule: Q04DX003 (ip), vehicle: other 96 % of control | dose: 100.0 mg/kg/injection, schedule: Q04DX003 (ip), vehicle: other 96 % of control | dose: 200.0 mg/kg/injection, schedule: Q04DX003 (ip), vehicle: other 91 % of control

Cc1cc(/C=C/c2ccc3cc(N(C)C)ccc3[n+]2C)c(C)n1-c1ccccc1
inactive: dose: 0.1 mg/kg/injection, schedule: Q01DX009 (ip), vehicle: saline with Tween-80 95 % of control | dose: 0.2 mg/kg/injection, schedule: Q01DX009 (ip), vehicle: saline with Tween-80 95 % of control | dose: 0.39 mg/kg/injection, schedule: Q01DX009 (ip), vehicle: saline with Tween-80 98 % of control | dose: 0.78 mg/kg/injection, schedule: Q01DX009 (ip), vehicle: saline with Tween-80 101 % of control

O=C1OC2CCC13CCCCC3C2 (configuration not stated)
inactive: [3] 96 % of control | [5] 88 % of control | [7] 86 % of control

CCCCCCC(O)CCCCCCCCCCC(=O)O (configuration not stated)
inactive: [3] 98 % of control | [5] 92 % of control | [7] 90 % of control

CCOC(=O)C(Cc1ccccc1)P(=O)(OCC)OCC (configuration not stated)
inactive: dose: 100.0 mg/kg/injection, schedule: Q01DX001 (ip), vehicle: saline 108 % of control | dose: 200.0 mg/kg/injection, schedule: Q01DX001 (ip), vehicle: saline 108 % of control | dose: 400.0 mg/kg/injection, schedule: Q01DX001 (ip), vehicle: saline 100 % of control

CC(=O)Nc1ccc(/C=N/NC(=O)CNC(=O)Nc2cccc(C(F)(F)F)c2)cc1
inactive: [1] 88 % of control | [2] 88 % of control | [4] 92 % of control

CN(C)CCCNc1cc(O)c2c(c1O)C(=O)c1ccccc1C2=O
inactive: dose: 25.0 mg/kg/injection, schedule: Q01DX009 (ip), vehicle: water 98 % of control | dose: 50.0 mg/kg/injection, schedule: Q01DX009 (ip), vehicle: water 98 % of control | dose: 100.0 mg/kg/injection, schedule: Q01DX009 (ip), vehicle: water 95 % of control | dose: 200.0 mg/kg/injection, schedule: Q01DX009 (ip), vehicle: water 98 % of control

C=C(C)C(=O)OCCO (tested in a mixture with another compound)
inactive: [2] 106 % of control | [3] 98 % of control | [4] 101 % of control | [5] 98 % of control | [6] 100 % of control | [7] 100 % of control

COc1ccc(C2(C)N=NC(=C(c3ccccc3)c3ccccc3)O2)cc1 (configuration not stated)
inactive: [2] 97 % of control | [3] 91 % of control | [4] 86 % of control | [5] 91 % of control | [6] 86 % of control | [7] 93 % of control

O=C1NC(c2ccccc2)C([N+](=O)[O-])=C1O (configuration not stated)
inactive: dose: 100.0 mg/kg/injection, schedule: Q01DX009 (ip), vehicle: saline sonified 101 % of control | [2] 101 % of control | dose: 200.0 mg/kg/injection, schedule: Q01DX009 (ip), vehicle: saline sonified 98 % of control | [4] 95 % of control | dose: 400.0 mg/kg/injection, schedule: Q01DX009 (ip), vehicle: saline sonified 102 % of control | [6] 97 % of control

O=[N+]([O-])C1=C(c2ccccc2)SC=C(c2ccccc2)S1
inactive: dose: 100.0 mg/kg/injection, schedule: Q01DX001 (ip), vehicle: saline with Tween-80 87 % of control | dose: 200.0 mg/kg/injection, schedule: Q01DX001 (ip), vehicle: saline with Tween-80 97 % of control | dose: 400.0 mg/kg/injection, schedule: Q01DX001 (ip), vehicle: saline with Tween-80 105 % of control

CC1(C)N=C(N)N=C(N)N1c1cccc(CCCCc2ccc(Cl)c(S(=O)(=O)F)c2)c1
inactive: dose: 1.8 mg/kg/injection, schedule: Q01DX009 (ip), vehicle: saline 98 % of control | dose: 3.5 mg/kg/injection, schedule: Q01DX009 (ip), vehicle: saline 93 % of control | dose: 7.0 mg/kg/injection, schedule: Q01DX009 (ip), vehicle: saline 91 % of control | dose: 14.0 mg/kg/injection, schedule: Q01DX009 (ip), vehicle: saline 89 % of control | dose: 28.0 mg/kg/injection, schedule: Q01DX009 (ip), vehicle: saline 104 % of control | dose: 200.0 mg/kg/injection, schedule: Q04DX003 (ip), vehicle: saline sonified 86 % of control

C#CCOC1CCCCO1 (configuration not stated)
inactive: dose: 25.0 mg/kg/injection, schedule: Q01DX009 (ip), vehicle: saline 102 % of control | dose: 50.0 mg/kg/injection, schedule: Q01DX009 (ip), vehicle: saline 108 % of control | dose: 100.0 mg/kg/injection, schedule: Q01DX009 (ip), vehicle: saline 106 % of control

Source: PubChem BioAssay AID256 (DTP/NCI, 2004)
